Key:
[1] = Stability study: half-life in neutral aqueous solutions; assay type: physicochemical; conditions: xylyl substituted derivatives
Excerpt: The introduction of the meta-xylyl ring on the silicon-rosindolizine bridge as found to impart substantial stability compared to a tolyl ring on the silicon-rosindolizine bride. […] This increased stability is critically important to some biological imaging applications. The meta-xylyl substituted derivative retain very similar spectral properties to the tolyl derivatives with absorption and emission observed in the SWIR region. […] Application in night vision, solar cells, and photodetectors are also possible with materials absorbing in this spectral region. […] The quantum yield is near 0.01-0.05% in these environments with peak emission of SiRos1 at ˜1350 nm (FIG. 13) and peak emission of SiRos2>1550 nm.

[2] = Emission studies (SWIR emission spectra, 980 nm excitation); assay type: physicochemical; conditions: organic solvent (dichloromethane) / water when encapsulated in a polymer; SiRos1 in DCM (FIG. 13)
Method: 0.1 mg of silicone-based compound was combined with 10 mg DSPE-mPEG2000 (1% loading of dye by mass) in 3 mL of dichloromethane (DCM) in a 10 mL scintillation vial. The solution was vortexed for 10 seconds to homogenously mix the components. DCM was evaporated from the solution on a rotary evaporator at 50° C. until the solution forms a thin paste around the vial. Subsequently, the vial was placed on high vacuum for a half an hour to remove any residual DCM. Next, 3 mL of D2O was added and the resulting mixture was sonicated for one minute with gentle swirling to dissolve the polymer and dye together. The mixture was syringe filtered (0.45 μm) to remove any unencapsulated compound.
The emission spectra of the dyes were recorded from 1000-2500 nm using a liquid nitrogen cooled InAs fluorimeter from Horiba. A 980 nm DPSS (diode pumped solid state laser, max power 2 W) laser was used as the excitation source and the chopper signal was split from the chopper control to the lock-in-amplifier as a reference signal and the trigger signal to the laser controller. All studies were performed at 1e-5 M in DCM or 0.1 mg of dye per 3 mL D2O solution (for D2O, the dyes were solubilized in a commercially available DSPE-mPEG2000 nanoparticle, preparation previously supplied).

Row | Compound | half-life [1] | peak emission [2]
1 | CCCCC(CC)CC1=C(c2ccccc2)/C(=c2\ccc3c(c2)[Si](CC(CC)CCCC)(CC(CC)CCCC)c2cc(-c4c(-c5ccccc5)c(CC(CC)CCCC)c5cc(-c6ccc(N(C)C)cc6)ccn45)ccc2C=3c2c(C)cccc2C)[n+]2ccc(-c3ccc(N(C)C)cc3)cc21.[O-][Cl+3]([O-])([O-])[O-] (centres unmarked) [SiRos2, (Z)-7-(4-(dimethylamino)phenyl)-3-(7-(7-(4-(dimethylamino)phenyl)-1-(2-ethylhexyl)-2-phenylindolizin-3-yl)-10-(2,6-dimethylphenyl)-5,5-bis(2-ethylhexyl)dibenzo[b,e]silin-3(5H)-ylidene)-1-(2-ethylhexyl)-2-phenyl-3H-indolizin-4-ium perchlorate] | longer than a week | > 1550 nm
2 | CCCCC(CC)C[Si]1(CC(CC)CCCC)c2cc(-c3c(-c4ccccc4)c(C)c4ccccn34)ccc2C(c2c(C)cccc2C)=c2cc/c(=C3\C(c4ccccc4)=C(C)c4cccc[n+]43)cc21.[O-][Cl+3]([O-])([O-])[O-] (centres unmarked) [SiRos1, (Z)-3-(10-(2,6-dimethylphenyl)-5,5-bis(2-ethylhexyl)-7-(1-methyl-2-phenylindolizin-3-yl)dibenzo[b,e]silin-3(5H)-ylidene)-1-methyl-2-phenyl-3H-indolizin-4-ium perchlorate] | longer than a week | ~1350 nm
3 | CCCCC(CC)C[Si]1(CC(CC)CCCC)c2cc(-c3c(-c4ccccc4)c(-c4ccc(N(C)C)cc4)c4cc(-c5ccc(N(C)C)cc5)ccn34)ccc2C(c2c(C)cccc2C)=c2cc/c(=C3\C(c4ccccc4)=C(c4ccc(N(C)C)cc4)c4cc(-c5ccc(N(C)C)cc5)cc[n+]43)cc21.[O-][Cl+3]([O-])([O-])[O-] (centres unmarked) [SiRos3, (Z)-3-(7-(1,7-bis(4-(dimethylamino)phenyl)-2-phenylindolizin-3-yl)-10-(2,6-dimethylphenyl)-5,5-bis(2-ethylhexyl)dibenzo[b,e]silin-3(5H)-ylidene)-1,7-bis(4-(dimethylamino)phenyl)-2-phenyl-3H-indolizin-4-ium perchlorate] | longer than a week | 

Reference: patent publication US12409238B2, “Silicone-based dyes with short wavelength infrared absorption and emission and methods for making and using the same” (UNIVERSITY OF MISSISSIPPI, priority 2021, dated 2025)
